Values quoted from earlier work, collected in patent US8273780B2, “Polycyclic antagonists of lysophosphatidic acid receptors” (Amira Pharmaceuticals, Inc., priority 2009, dated 2012).

Experiments:
[1] = test system: pancreatic cancer cell lines; conditions: in response to LPA and peritoneal fluid (ascites) from pancreatic cancer patients; cited from earlier work
[2] = test system: highly peritoneal metastatic pancreatic cancer cell line; conditions: LPA-induced and ascites-induced; cited from earlier work
UUO mice = conditions: in LPA1 (−/−) mice renal fibrosis was significantly attenuated; cited from earlier work

For `Cc1noc(-c2ccc(CSCCC(=O)O)cc2)c1NC(=O)OC(C)c1ccccc1Cl` (stereo not drawn) [Ki16425], the in vitro migration [1] is listed as “effectively blocked”, the invasion activity [2] is listed as “blocked” and the “development of renal fibrosis” value (UUO mice) is listed as “closely resembled the LPA1 (−/−) mice”.
